Reference: patent publication US20040024000A1, “Dihydropyrimidine derivatives as cysteine protease inhibitors” (priority 2003, published 2004)

How the values were obtained:
r cathepsin K = target: T1, r cathepsin K (Homo sapiens, UniProt P43235); test: In vitro assay for cathepsin K inhibition; assay type: biochemical; conditions: substrate N-CBZ-Phe-Arg-AMC, pH 5.5, 10 min preincubation
T1 sequence (P43235 115-329): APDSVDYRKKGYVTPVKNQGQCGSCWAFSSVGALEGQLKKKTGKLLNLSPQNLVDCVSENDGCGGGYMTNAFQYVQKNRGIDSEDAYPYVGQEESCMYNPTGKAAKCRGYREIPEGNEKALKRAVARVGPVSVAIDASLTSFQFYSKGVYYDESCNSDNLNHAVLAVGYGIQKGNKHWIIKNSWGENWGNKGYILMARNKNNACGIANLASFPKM
Experimental: To a […] of enzyme-buffer mixture (enzyme: r cathepsin K, diluted to give approximate 30 F units/min, buffer: 100 mM sodium acetate, 5 mM EDTA, 20 mM L-cysteine, 0.01% Brij, pH 5.5) a 10 μl of inhibitor (dissolved in DMSO) was added. After 10 min of incubation at room temperature, a 20 μl of 2.7 mM substrate (N-CBZ-Phe-Arg-AMC, dissolved in DMSO) was added to initiate reaction. Reading is followed up for 10 min at the fluoroscan II plate reader (excitation at 380 nm emission at 460 nm).
(§1) A plot of percentage of inhibition vs inhibitor concentration is obtained, and IC50 is determined using a linear regression calculations (concentration of inhibitor which will give 50% inhibition).

r cathepsin S = r cathepsin S (Homo sapiens, UniProt P25774); test: In vitro assay for cathepsin S inhibition; assay type: biochemical; conditions: substrate N-CBZ-Val-Val-Arg-AMC, pH 6.5, 10 min preincubation
Experimental: To a […] of enzyme-buffer mixture (enzyme: r cathepsin S, diluted to give approximate 30 F units/min, buffer: 100 mM sodium phosphate, 1 mM EDTA, 5 mM DTT, 0.01% Brij, pH 6.5) a 10 μl of inhibitor (dissolved in DMSO) was added. After 10 min of incubation at room temperature a […] of 1.2 mM substrate (N-CBZ-Val-Val-Arg-AMC, dissolved in DMSO) was added to initiate reaction. Reading is followed up for 10 min at the fluoroscan 11 plate reader (excitation at 380 nm emission at 460 nm).
as §1

r rat cathepsin B = r rat cathepsin B (Rattus norvegicus, UniProt P00787); test: In vitro assay for cathepsin B inhibition; assay type: biochemical; conditions: substrate N-CBZ-Phe-Arg-AMC, pH 5.1, 10 min preincubation
Experimental: The compounds of formula I were tested for inhibition of cathepsin B using the known method (A. J. Barret et al., Biochem. J. 1982, 201, 189-198). To a 170 μl of enzyme-buffer mixture (enzyme: r rat cathepsin B, diluted to give approximate 10 F units/min, buffer: 56 mM sodium acetate, 1.124 mM EDTA, 10 mM DTT, pH 5.1) a 10 μl of inhibitor (dissolved in DMSO) was added. After 10 min of incubation at room temperature, a 20 μl of 5 mM substrate (N-CBZ-Phe-Arg-AMC, dissolved in DMSO) was added to initiate reaction. Reading is followed up for 10 min at the fluoroscan reader (excitation at 380 nm emission at 460 nm).
as §1

r rat cathepsin L = r rat cathepsin L (Rattus norvegicus, UniProt P07154); test: In vitro assay for cathepsin L inhibition; assay type: biochemical; conditions: substrate N-CBZ-Phe-Arg-AMC, pH 5.0, 10 min preincubation
Experimental: After 10 min of incubation at room temperature, a 20 μl of 1 mM substrate (N-CBZ-Phe-Arg-AMC, dissolved in DMSO) was added to initiate reaction. Reading is followed up for 10 min at the fluoroscan reader (excitation at 380 nm emission at 460 nm).
as §1

[1] = Pharmacokinetics in mice after single oral dose; assay type: in vivo; design: Cl/F: unit not given here; conditions: single oral dose of 5 mg/kg; for AUC / Cmax / half-life / Vd/F: mouse, in vivo; for Vd/F: read-out: Vz/F
Experimental: Selected compounds of present invention were tested in rodents. This class of compound has favorable pharmacokinetics at the oral dose of 5 mg/kg. The bioavailability is about 60-70%.

Chain of r rat cathepsin B (P00787 80-333): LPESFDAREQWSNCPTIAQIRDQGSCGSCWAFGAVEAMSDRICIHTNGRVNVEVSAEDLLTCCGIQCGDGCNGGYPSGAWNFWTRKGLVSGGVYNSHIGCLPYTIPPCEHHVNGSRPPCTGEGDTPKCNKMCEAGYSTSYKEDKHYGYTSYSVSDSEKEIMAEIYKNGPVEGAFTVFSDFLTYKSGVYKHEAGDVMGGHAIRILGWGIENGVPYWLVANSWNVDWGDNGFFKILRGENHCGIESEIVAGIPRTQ
Chain of r rat cathepsin L (P07154 114-334): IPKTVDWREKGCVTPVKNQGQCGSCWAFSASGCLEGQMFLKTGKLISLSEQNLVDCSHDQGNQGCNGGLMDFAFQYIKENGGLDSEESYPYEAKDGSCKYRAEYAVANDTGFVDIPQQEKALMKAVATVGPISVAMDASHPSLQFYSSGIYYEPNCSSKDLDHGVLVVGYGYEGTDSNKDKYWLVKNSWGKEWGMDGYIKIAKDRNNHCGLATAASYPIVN
Chain of r cathepsin S (P25774 115-331): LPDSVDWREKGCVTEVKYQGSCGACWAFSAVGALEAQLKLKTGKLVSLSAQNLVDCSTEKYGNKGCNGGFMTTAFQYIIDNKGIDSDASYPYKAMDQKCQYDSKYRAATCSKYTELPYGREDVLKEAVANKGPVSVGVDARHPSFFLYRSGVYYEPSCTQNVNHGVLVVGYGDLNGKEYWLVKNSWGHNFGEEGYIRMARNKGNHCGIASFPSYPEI

Row | Compound | IC50 (r cathepsin K) | IC50 (r cathepsin S) | IC50 (r rat cathepsin B) | IC50 (r rat cathepsin L) | AUC [1] | Cmax [1] | half-life [1] | Vd/F [1] | Cl/F [1]
1 | CC(C)C[C@H](NC(=O)OCc1ccccc1)C(=O)NC1=CNC(c2ccccc2F)NC1=O (stereo partly drawn) [Example 2, 5-[2-(Benzyloxycarbonyl)amino-2-isobutyl]acetamido-2-(2-fluorophenyl)-2,3-dihydopyrimidine-6-(1H)one] | 0.057 µM | 0.29 µM | 8.38 µM | 0.92 µM | – | – | – | – | –
2 | CC(C)C[C@H](NC(=O)OCc1ccccc1)C(=O)NC1=CNC(c2ccco2)NC1=O (stereo partly drawn) [Example 20, 5-[2-(Benzyloxycarbonyl)amino-2-isobutyl]acetamido-2-(furan-2-yl)-2,3-dihydopyrimidine-6-(1H)one] | 0.045 µM | 0.094 µM | 2.35 µM | 1.5 µM | – | – | – | – | –
3 | CC(C)C[C@H](NC(=O)OCc1ccccc1)C(=O)NC1=CNC(c2ccncc2)NC1=O (stereo partly drawn) [Example 9, 5-[2-(Benzyloxycarbonyl)-amino-2-isobutyl]acetamido-2-(pyridin-4-yl)-2,3-dihydopyrimidine-6-(1H)one] | 0.018 µM | 0.055 µM | 2.29 µM | 0.46 µM | – | – | – | – | –
4 | CC(C)C[C@H](NC(=O)CCc1ccccc1)C(=O)NC1=CNC2(CCCCCC2)NC1=O [Example 19, 5-[2-(3-Phenylpropionoyl)-amino-2-isobutyl]acetamido-2,2-spirocycloheptyl-2,3-dihydopyrimidine-6-(1H)one] | 0.091 µM | 0.068 µM | 5.22 µM | 0.45 µM | – | – | – | – | –
5 | CC(C)C[C@H](NC(=O)OCc1ccccc1)C(=O)NC1=CNC(c2ccccc2)NC1=O (stereo partly drawn) [Example 1, 5-[2-(Benzyloxycarbonyl)amino-2-isobutyl]acetamido-2-phenyl-2,3-dihydopyrimidine-6-(1H)one] | 0.34 µM | 0.46 µM | 4.01 µM | 0.46 µM | – | – | – | – | –
6 | CC(C)C[C@H](NC(=O)CCc1ccccc1)C(=O)NC1=CNC2(CCCC2)NC1=O [Example 17, 5-[2-(3-Phenylpropionyl)-amino-2-isobutyl]acetamido-2,2-spirocyclopentyl-2,3-dihydopyrimidine-6-(1H)one] | 12.1 µM | 8.49 µM | > 50 µM | > 50 µM | – | – | – | – | –
7 | CC(C)C[C@H](NC(=O)c1cc2ccccc2s1)C(=O)NC1=CNC(c2ccccc2F)NC1=O (stereo partly drawn) [Example 21, 5-[2-(Benzothiophene-2-yl)amino-2-isobutyl]acetamido-2-(2-fluorophenyl)-2,3-dihydopyrimidine-6-(1H)one] | 0.014 µM | 0.037 µM | 0.42 µM | 0.17 µM | 0.853 µg·h/mL | 2.61 ± 1.84 µg/mL | 0.54 ± 0.39 h | 4.49 ± 3.03 L/kg | 2.09 ± 0.72

More lines, now with the values ahead:

Row | IC50 (r cathepsin K) | IC50 (r cathepsin S) | IC50 (r rat cathepsin B) | IC50 (r rat cathepsin L) | AUC [1] | Cmax [1] | half-life [1] | Vd/F [1] | Cl/F [1] | Compound
8 | 0.074 µM | 0.48 µM | 4.56 µM | 0.48 µM | – | – | – | – | – | CC(C)C[C@H](NC(=O)OCc1ccccc1)C(=O)NC1=CNC(C(C)(C)C)NC1=O (stereo partly drawn) [Example 8, 5-[2-(Benzyloxycarbonyl)-amino-2-isobutyl]acetamido-2-tert-butyl-2,3-dihydopyrimidine-6-(1H)one]
9 | > 50 µM | > 50 µM | > 50 µM | > 50 µM | – | – | – | – | – | CC(C)C[C@H](NC(=O)OCc1ccccc1)C(=O)Nc1c[nH]c(=O)[nH]c1=O [Example 14, 5-[2-(Benzyloxycarbonyl)-amino-2-isobutyl]acetamido Pyrimidin-2,6-dione]
10 | 0.25 µM | 2.32 µM | 9.53 µM | 2.32 µM | – | – | – | – | – | CC(C)C[C@H](NC(=O)OCc1ccccc1)C(=O)NC1=CNC(CC(C)(C)C)NC1=O (stereo partly drawn) [Example 10, 5-[2-(Benzyloxycarbonyl)-amino-2-isobutyl]acetamido-2-tert-butylmethyl-2,3-dihydopyrimidine-6-(1H)one]
11 | 0.1 µM | 0.48 µM | 3.16 µM | 1.79 µM | 2.73 µg·h/mL | 3.83 ± 3.09 µg/mL | 1.63 ± 0.48 h | 4.49 ± 1.9 L/kg | 0.617 ± 0.08 | CC(C)C[C@H](NC(=O)OCc1ccccc1)C(=O)NC1=CNC2(CCCC2)NC1=O [Example 6, 5-[2-(Benzyloxycarbonyl)amino-2-isobutyl]acetamido-2,2-spirocyclopentyl-2,3-dihydopyrimidine-6-(1H)one]
